From patent US12005033B2, “Compositions comprising mixtures of semifluorinated alkanes” (Novaliq GmbH, priority 2012, dated 2024)

Assay: Liquid droplet spread area on a glass surface
Assay type: physicochemical
Settings: 2 minutes after application of 50 μL of liquid to a glass surface

Row | Liquid covered surface area | Structure (SMILES)
1 | 1.45 ± 0.02 cm^2 | FC1(F)C(F)(F)C(F)(F)C2(F)C(F)(F)C(F)(F)C(F)(F)C(F)(F)C2(F)C1(F)F (stereo not shown) [Perfluorodecalin, reference compound]
2 | 7.54 ± 0.33 cm^2 | CCCCCC(F)(F)C(F)(F)C(F)(F)C(F)(F)F [F4H5, F(CF2)4(CH2)5H]
3 | 5.20 ± 0.18 cm^2 | CCCCCCCCC [Nonane, reference compound]

Row | Structure (SMILES) | Liquid covered surface area
4 | CCCCCCCCC(F)(F)C(F)(F)C(F)(F)C(F)(F)C(F)(F)C(F)(F)F [F6H8, F(CF2)6(CH2)8H] | 12.89 ± 0.94 cm^2
